38 compounds from patent publication US20250084062A1, “SUBSTITUTED QUINOLINE DERIVATIVE” (ASTELLAS PHARMA INC., priority 2021, published 2025) can be followed below.

Like-named read-outs stand apart in the source and are kept apart here.

The subject of the assay is acetylcholine receptor clustering in C2Cl2 cells. Nature of the assay: Induction of acetylcholine receptor clustering in mouse myoblasts C2Cl2 cells (Test Example 1). Type of assay: cell-based. The following applies: for Emax / EC50: Mus musculus; for Emax: Myoblast, read-out: Max; for EC50: Myotube; for response, % at 30 μM: vs 10 ng/ml Agrin (100%). As to the method: Test Example 1: Evaluation of the Induction of Acetylcholine Receptor Clustering in Mouse Myoblasts C2Cl2 Cells
Induction of acetylcholine receptor clustering by the test compound was evaluated by using fluorescently-labeled Bungarotoxin to image and quantify the acetylcholine receptor cluster region induced by the differentiation of myoblasts into myotubes, and measure the change in area. The following test method was optimized with reference to various reports including FEBS let., 586, 3111-3116 (2012). When a concentration response curve is obtained by plotting the logarithmic concentration of the test compound on the horizontal axis and the ratio of the area of acetylcholine receptor cluster region on the vertical axis, the inducing action of the test compound can be determined.
A concentration response curve as an index indicating acetylcholine receptor clustering inducing action of the test compound in mouse C2Cl2 cells was prepared. C2Cl2 cells (ATCC Number: CRL-1772) were seeded at about 5000 cells/well on a 384-well plate (354667; Corning) coated with type I collagen and allowed to incubate at 37 degrees Celsius overnight in DMEM+20% FBS+1% penicillin/streptomycin medium. The following day, the medium was removed and replaced with a differentiation medium containing DMEM+2% FBS+1% penicillin/streptomycin, and allowed to incubate at 37 degrees Celsius for 4 days. The test compound was dissolved in DMSO and added to a differentiation medium containing 0.1 ng/ml Agrin (550-AG-100; R&D systems) such that the final concentration was […] (3-fold serial dilution) or 0.00017 to 3.3 μM (3-fold serial dilution). The final concentration of DMSO was 0.3%. After the 4 days of incubation, the differentiation medium was replaced with a differentiation medium containing the test compound and 0.1 ng/ml Agrin or a differentiation medium containing 0.1 ng/ml Agrin or 10 ng/ml Agrin alone, and allowed to incubate at 37 degrees Celsius overnight. The next day, 10 μl of DMEM containing Bungarotoxin-Alexa488 (B13422; Life technologies) was added to the differentiation medium containing test compound and Agrin and Agrin alone so that the final concentration of Bungarotoxin-Alexa488 was 1 μg/ml, and was allowed to incubate at 37 degrees Celsius for 1 hour to label the acetylcholine receptor. After removing all the medium, 4% PFA was added to each well and allowed to incubate at room temperature for 10 minutes, then washed with PBS, and allowed to incubate at room temperature for 30 minutes in PBS containing 5% goat serum and 0.3% Triton X-100. After removing the PBS solution, PBS-Tween20 (28352; Thermo fisher scientific) containing Anti-Myosin Heavy Chain eFluor (registered trademark) 660 (50-6503-82; eBioscience) and DAPI (340-07971; Dojindo) was added to each well and allowed to incubate at room temperature for 1 hour to label the myotubes and nuclei. After washing three times with PBS-Tween20, the fluorescence was imaged using IN Cell Analyzer 6000 (GE Healthcare). […] The response of control group (1) was regarded as 0% and the response of the control group (2) was regarded as 100%. For quantification, the signal of only the acetylcholine receptor present in the myotube was used to eliminate non-specific fluorescence.
EC50 and Max value were used as indicators of activity in order to quantitatively evaluate the inducing action of the test compound on acetylcholine receptor clustering. EC50 value is a test compound concentration which indicates 50% in terms of the area of acetylcholine receptor cluster region compared to that of 10 ng/ml Agrin (regarded as 100%) in the concentration response curve. EC50 was calculated by nonlinear regression analysis from the concentration response curve using the area of the cluster region of the test compound as an index. Max value is the maximum response value. […]

Where [1] appears, read: maximum response, area of acetylcholine receptor cluster region vs 10 ng/ml Agrin (100%), 0.1 ng/ml Agrin = 0%.
Setting [2] is: C2Cl2 myotubes, with 0.1 ng/ml Agrin, concentration giving 50% of cluster area of 10 ng/ml Agrin (100%), read-out: EC50.

Consider `Cc1cc(-c2ccc(S(=O)(=O)N3C[C@@H](F)[C@H](F)C3)cc2F)nc2cc(C(=O)O)ccc12` [Example 27], for which the Emax under setting [1] was 94.6%. For the same compound, under setting [2], the half-maximal effective concentration (EC50) is 103 nM.

With `Cc1cc(-c2ccc(S(=O)(=O)N3C[C@@H](F)C[C@H]3CO)cc2F)nc2cc(C(=O)O)ccc12` [Example 28], the Emax under setting [1] came out at 74.2%. The concentration for a half-maximal effect (EC50) under setting [2] stood at 4030 nM.

Regarding `CO[C@@H]1CN(S(=O)(=O)c2ccc(-c3cc(C)c4ccc(C(=O)O)cc4n3)c(F)c2)C[C@H]1F` [Example 29], the “response, % at 30 μM” value came out at 46.2% at 30 μM. Further, under setting [1], the Emax was determined as 46.2%.

In the case of `Cc1cc(-c2ccc(S(=O)(=O)N3CC[C@H](F)C3)cc2C#N)nc2cc(C(=O)O)ccc12` [Example 30], the Emax under setting [1] worked out at 94.7%. Besides, the EC50 under setting [2] worked out at 1120 nM.

As to `Cc1cc(-c2ccc(S(=O)(=O)N3CC[C@H](F)C3)cc2CO)nc2cc(C(=O)O)ccc12` [Example 31], the “response, % at 30 μM” value is 48.8% at 30 μM. Further, the Emax under setting [1] stood at 48.8%.

With `COCc1cc(S(=O)(=O)N2CC[C@H](F)C2)ccc1-c1cc(C)c2ccc(C(=O)O)cc2n1` [Example 32], the “response, % at 30 μM” value amounted to 38.8% at 30 μM. The Emax under setting [1] amounted to 38.8%.

Regarding `Cc1cc(-c2c(F)cc(S(=O)(=O)N3CC[C@H](F)C3)cc2F)nc2cc(CC(=O)O)ccc12` [Example 33], the Emax under setting [1] was determined as 86.1%. The 50% effective concentration (EC50) under setting [2] amounted to 65 nM.

On to `Cc1cc(-c2c(F)cc(S(=O)(=O)N3CC[C@H](F)C3)cc2F)nc2cc(CCC(=O)O)ccc12` [Example 34], for which the Emax under setting [1] turned out to be 94.1%. The EC50 under setting [2] worked out at 16 nM.

Regarding `Cc1cc(-c2c(F)cc(S(=O)(=O)N3CC[C@H](F)C3)cc2F)nc2cc(/C=C/C(=O)O)ccc12` [Example 35], the Emax under setting [1] came to 99.5%. Also, the EC50 under setting [2] was determined as 20 nM.

Regarding `Cc1cc(-c2c(F)cc(S(=O)(=O)N3CC[C@H](F)C3)cc2F)nc2nc(C3=CCC(C(=O)O)CC3)ccc12` (stereo partly shown) [Example 36], under setting [1], the Emax amounted to 80.2%. The half-maximal effective concentration (EC50) under setting [2] amounted to 392 nM.

For `Cc1cc(-c2c(F)cc(S(=O)(=O)N3CC[C@H](F)C3)cc2F)nc2nc(C3CCC(C(=O)O)CC3)ccc12` (stereo partly shown) [Example 37], the Emax under setting [1] came to 70.1%. The EC50 under setting [2] is 3220 nM.

In the case of `Cc1cc(-c2c(F)cc(S(=O)(=O)N3CCC(F)CC3)cc2F)nc2nc(C(=O)O)ccc12` [Example 38], under setting [1], the Emax is 78.5%. The EC50 under setting [2] stood at 724 nM.

As for `Cc1cc(-c2c(F)cc(S(=O)(=O)N3CC[C@H](F)C3)cc2F)nc2nc(C(=O)O)ccc12` [Example 39], the Emax under setting [1] turned out to be 78.2%. Further, the EC50 under setting [2] was determined as 2570 nM.

Take `Cc1cc(-c2c(F)cc(S(=O)(=O)N3CCC(F)CC3)cc2F)nc2cc(C(=O)NC3CN(C)C3)ccc12` [Example 41]: the Emax under setting [1] was 87%. The EC50 under setting [2] stood at 52 nM.

`Cc1cc(-c2c(F)cc(S(=O)(=O)N3CC[C@H](F)C3)cc2F)nc2cc(C(=O)N3CC4(CN(C)C4)C3)ccc12` [Example 42]: the Emax under setting [1] is 78.1%. For the same compound, the EC50 under setting [2] amounted to 19 nM.

As for `Cc1cc(-c2c(F)cc(S(=O)(=O)N3CC[C@H](F)C3)cc2F)nc2cc(C(=O)NCCN(C)C)ccc12` [Example 43], under setting [1], the Emax was 91.6%. The 50% effective concentration (EC50) under setting [2] came to 21 nM.

Consider `Cc1c(F)c(-c2c(F)cc(S(=O)(=O)N3CCC(F)CC3)cc2F)nc2cc(C(=O)N3CC4(CN(C)C4)C3)ccc12` [Example 44], for which the Emax under setting [1] stood at 81.8%. For the same compound, under setting [2], the concentration for a half-maximal effect (EC50) was determined as 5 nM.

Consider `Cc1c(F)c(-c2c(F)cc(S(=O)(=O)N3CC[C@H](F)C3)cc2F)nc2cc(C(=O)N3CC4(CN(C)C4)C3)ccc12` [Example 45], for which, under setting [1], the Emax came out at 86.1%. The EC50 under setting [2] turned out to be 9 nM.

`Cc1cc(-c2c(F)cc(S(=O)(=O)N3CCC(F)CC3)cc2F)nc2nc(C(=O)N3CC4(CN(C)C4)C3)ccc12` [Example 46]: the Emax under setting [1] was 80.9%. For the same compound, the concentration for a half-maximal effect (EC50) under setting [2] stood at 43 nM.

For the compound `Cc1cc(-c2ccc(S(=O)(=O)N3CCCCC3)cc2)nc2cc(C(=O)O)ccc12` [Example 47], the Emax under setting [1] stood at 102%. Under setting [2], the concentration for a half-maximal effect (EC50) was 428 nM.

As to `Cc1cc(-c2ccc(S(=O)(=O)N3CCC[C@H]3CO)cc2F)nc2cc(C(=O)O)ccc12` [Example 48], the Emax under setting [1] amounted to 74%. In addition, under setting [2], the concentration giving a half-maximal response (EC50) was 3750 nM.

With `Cc1cc(-c2ccc(S(=O)(=O)N3C[C@@H](O)[C@H](F)C3)cc2F)nc2cc(C(=O)O)ccc12` [Example 49], under setting [1], the Emax turned out to be 81.9%. Moreover, the EC50 under setting [2] was determined as 1090 nM.

With `Cc1cc(-c2ccc(S(=O)(=O)N3CCC[C@H](O)C3)cc2F)nc2cc(C(=O)O)ccc12` [Example 50], the Emax under setting [1] amounted to 70.5%. The EC50 under setting [2] was 3520 nM.

For the compound `Cc1cc(S(=O)(=O)N2CC[C@H](F)C2)ccc1-c1nc2cc(C(=O)O)ccc2c(C)c1F` [Example 51], under setting [1], the Emax is 77.8%. Also, the EC50 under setting [2] is 159 nM.

In the case of `Cc1cc(-c2c(F)cc(S(=O)(=O)N3CC[C@H](F)C3)cc2F)nc2cc(C(=O)NC[C@H]3COCCN3)ccc12` [Example 52], the Emax under setting [1] was 94.2%. Moreover, under setting [2], the EC50 came to 33 nM.

With `Cc1cc(-c2c(F)cc(S(=O)(=O)N3CC[C@H](F)C3)cc2F)nc2cc(C(=O)NC3CCNC3)ccc12` (stereo partly shown) [Example 53], under setting [1], the Emax is 77.9%. Besides, the EC50 under setting [2] came out at 96 nM.

On to `Cc1c(F)c(-c2c(F)cc(S(=O)(=O)N3CC[C@H](F)C3)cc2F)nc2cc(C(=O)NC(C)(C)CC(=O)O)ccc12` [Example 54], for which, under setting [1], the Emax was found to be 60.8%. The 50% effective concentration (EC50) under setting [2] came out at 1490 nM.

On to `Cc1cc(-c2ccc(S(=O)(=O)N3CC[C@H](F)C3)cc2F)nc2c(F)c(N3CCNCC3=O)ccc12` [Example 55], for which, under setting [1], the Emax amounted to 38.9%. For the same compound, under setting [2], the concentration for a half-maximal effect (EC50) worked out at 7160 nM.

For `Cc1c(F)c(-c2c(F)cc(S(=O)(=O)N3CC[C@H](F)C3)cc2F)nc2cc(CCN)ccc12` [Example 56], the Emax under setting [1] was 97%. Besides, the EC50 under setting [2] came out at 53 nM.

In the case of `Cc1c(F)c(-c2c(F)cc(S(=O)(=O)N3CC[C@H](F)C3)cc2F)nc2cc(C3CCNCC3)ccc12` [Example 57], the Emax under setting [1] was determined as 87%. In addition, the concentration for a half-maximal effect (EC50) under setting [2] is 89 nM.

As for `Cc1cc(-c2c(F)cc(S(=O)(=O)N3CCC(F)CC3)cc2F)nc2cc(C(=O)NCCCN)ccc12` [Example 58], under setting [1], the Emax amounted to 89.6%. In addition, the EC50 under setting [2] was determined as 33 nM.

`CNCCN(C)C(=O)c1ccc2c(C)cc(-c3c(F)cc(S(=O)(=O)N4CC[C@H](F)C4)cc3F)nc2c1` [Example 59]: the Emax under setting [1] was found to be 95.8%. Further, the EC50 under setting [2] was 49 nM.

Turning to `CNCCNC(=O)c1ccc2c(C)cc(-c3c(F)cc(S(=O)(=O)N4CCC(F)CC4)cc3F)nc2n1` [Example 60], the Emax under setting [1] was found to be 99.2%. The half-maximal effective concentration (EC50) under setting [2] turned out to be 11 nM.

As to `CNCCNC(=O)c1ccc2c(C)cc(-c3c(F)cc(S(=O)(=O)N4CC[C@H](F)C4)cc3F)nc2n1` [Example 61], the Emax under setting [1] was 92.4%. Moreover, the EC50 under setting [2] is 26 nM.

As to `Cc1cc(-c2c(F)cc(S(=O)(=O)N3CC[C@H](F)C3)cc2F)nc2nc(C3=CCNCC3)ccc12` [Example 62], the Emax is 86.4% and it took 1 nM to reach a half-maximal effect (EC50).

Turning to `Cc1cc(-c2ccc(S(=O)(=O)N3CCCCC3)cc2)nc2cc(OCCO)ccc12` [Example 63], the Emax under setting [1] stood at 104%. For the same compound, the EC50 under setting [2] was determined as 165 nM.

For the compound `Cc1cc(-c2ccc(S(=O)(=O)N3CC[C@H](F)C3)cc2F)nc2cc(OC[C@@H](O)CO)ccc12` [Example 64], under setting [1], the Emax is 107%. Moreover, under setting [2], the EC50 was 24 nM.

As for `Cc1cc(-c2ccc(S(=O)(=O)N3CC[C@H](F)C3)cc2F)nc2cc(C(=O)NCC3(O)CNC3)ccc12` [Example 65], under setting [1], the Emax was determined as 84%. Besides, the EC50 under setting [2] was found to be 53 nM.
